In patent publication US20240180881A1, “METHODS FOR DECREASING RESISTANCE TO CHEMOTHERAPY” (National Institute of Immunology, priority 2022, published 2024):

What was measured:
[1] = biological target: T1, RAD54 chromatin remodeling activity (Homo sapiens, UniProt Q92698); assay: REA assay on chromatinized MRP2 array; type: biochemical; conditions: 10 μM compound
T1 construct: GST RAD54 (1-747) (WT), GST BLM (1-1417) (WT), His RAD54 (1-747) (WT); made in house; host or cells: E. coli BL-21 DE3
T1 sequence (Q92698 1-747): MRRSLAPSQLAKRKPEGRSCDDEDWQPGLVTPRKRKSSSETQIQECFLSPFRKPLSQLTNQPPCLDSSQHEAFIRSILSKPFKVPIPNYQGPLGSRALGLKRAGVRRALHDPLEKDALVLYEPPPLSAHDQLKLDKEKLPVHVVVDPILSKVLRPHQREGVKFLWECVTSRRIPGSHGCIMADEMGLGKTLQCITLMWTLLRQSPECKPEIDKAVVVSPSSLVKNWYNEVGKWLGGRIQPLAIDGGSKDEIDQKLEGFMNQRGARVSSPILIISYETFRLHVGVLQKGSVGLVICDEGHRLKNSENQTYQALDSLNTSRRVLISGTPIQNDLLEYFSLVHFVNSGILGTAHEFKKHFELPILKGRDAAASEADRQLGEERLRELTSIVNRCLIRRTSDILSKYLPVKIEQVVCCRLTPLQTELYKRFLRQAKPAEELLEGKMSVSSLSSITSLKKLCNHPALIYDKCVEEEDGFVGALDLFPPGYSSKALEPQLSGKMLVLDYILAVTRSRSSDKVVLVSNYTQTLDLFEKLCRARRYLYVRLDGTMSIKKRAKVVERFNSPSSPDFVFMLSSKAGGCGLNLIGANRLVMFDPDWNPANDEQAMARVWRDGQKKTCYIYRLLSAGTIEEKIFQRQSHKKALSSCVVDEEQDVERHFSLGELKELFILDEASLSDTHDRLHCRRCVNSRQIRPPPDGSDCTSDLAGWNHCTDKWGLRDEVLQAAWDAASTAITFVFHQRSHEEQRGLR
Excerpt: (§1) The data was from three independent experiments.
as §1
(§2) The data is from three independent experiments.

RAD54 ATPase activity = biological target: T2, RAD54 ATPase activity (Homo sapiens, UniProt Q92698); assay: ATPase assay; type: biochemical; conditions: 10 μM compound
T2 construct: made in house; host or cells: E. coli BL-21 DE3
T2 sequence (Q92698 1-747): T1 sequence (Q92698 1-747)
Experimental: The data is from three independent experiments. Mean±S.D.
The presence of the disruptors also led to a decrease in the ATP binding to RAD54.
Assay for RAD54 ATPase activity was carried out as per the previously published protocol (Srivastava et al., 2009). His-RAD54 (120 nM) was incubated with the GST-BLM (1-212) or BLM_peptide or SCM_peptide (180 nM). […] 1 μl of the sample was spotted on the polyethyleneimine-coated TLC plate, resolved in 1M Formic Acid and 0.3M LiCl. The products of ATP hydrolysis were then visualized by Phosphoimager scans taken in Typhoon™ laser-scanner platform (Cytiva) and quantitated using the inbuilt software.

His-RAD54 WT [2] = biological target: T3, His-RAD54 WT (Homo sapiens, UniProt Q92698); assay: Octet Bio-Layer Interferometry (BLI) binding; conditions: His-RAD54 WT immobilized onto Ni-NTA-sensor, 25° C.; read-out: affinity constant (KD)
T3 construct: made in house; host or cells: E. coli BL-21 DE3
T3 sequence (Q92698 1-747): T1 sequence (Q92698 1-747)
Experimental: The interactions between RAD54 and biotinylated BLM_peptide (181-212) as well as the various compounds were studied using Bio-layer interferometry (BLI) using the Octet K2 system (ForteBio Systems). Approximately, 250 μg of His-tagged RAD54 was immobilized onto a Ni-NTA chip for 600 s and the unbound protein was washed using 10 mM HEPES pH 7.5 buffer. […] Each of the reaction set was then used to check for their association with RAD54 captured on the sensor. The kinetics of the RAD54-BLM interaction was monitored for 180 s each for the association and the dissociation curves by dipping the sensors in a series of increasing concentrations of the BLM_peptide. 500 mM NaCl was used as the dissociation buffer. A control sensor with the immobilized RAD54 was used in parallel and was used to normalize the data. Washing in 350 mM EDTA regenerated the sensors for the next cycle of binding kinetics. The experiments were performed at 25° C. All the real-time data was analysed and KD values were determined using the Octet® Evaluation software using 1:1 fitting curves.

[3] = test system: MRP2 in HCT116 WT IC60 CPTR cells; assay: MRP2 activity, CDF accumulation; type: cell-based; conditions: combinatorial treatment with CPT
Experimental: The cells were incubated with MRP2 substrate CDFD for 30 minutes at 37° C. The accumulation of florescent product CDF was determined as a measure of MRP2 activity (FIG. 12E). The data is from three independent experiments. Mean±S.D.

HCT116 IC60 CPTR cells = assay: Soft agar assay; type: cell-based; conditions: 100 nM compound along with 120 nM of CPT
Experimental: Concentrations of CPT used: 0.140 nM, 20 nM, 50 nM, 1000 nM. Concentration of 1-OHP: 0.14 μM, 2 μM, 4 μM, 6 μM, 8 μM. Concentrations of CDDP used: 0.140 μM, 2 μM, 5 μM, 10 μM. The percentage of viable cells were determined by MTT assays (FIG. 12A-12C). The data in FIG. 12A and FIG. 12C is from three independent experiments and the data in FIG. 12B is from nine independent experiments. […] The levels of MRP2, MRP3, MRP5, MXR were quantitated from three independent experiments. […] Specifically, HCT116 IC60 CPTR cells were transfected with the HR substrate for 72 hours and the levels of HR was determined (FIG. 6A). The data is from three independent experiments. […] The number of soft agar colonies in each condition were counted. The data is from three independent experiments.
3000 cells mixed with 0.4% agar and seeded on top of the 6-well plates pre-coated with 0.8% agar. The resistant cells were treated with 120 nM of CPT. Post-incubation cells were seeded. […] The colonies were then counted after 15 days after staining with 0.25% Crystal Violet.

His-RAD54 WT [4] = biological target: T3, His-RAD54 WT; assay: Tryptophan fluorescence assay; type: binding; conditions: compound, from 10 nM
Experimental: To determine how BLM peptide affects ATP binding and hydrolysis, tryptophan fluorescence assays were carried out using full-length recombinant RAD54 in presence of either BLM_peptide or SCM_peptide (FIG. 2H). Tryptophan fluorescence assays were carried out with RAD54 WT alone or RAD54 WT in presence of the indicated concentrations of either BLM_peptide (upper panel) or SCM_peptide (lower panel). The experiment was repeated three times and one representative experiment has been shown.
RAD54 fluorescence was measured in a fluorometer.
Tryptophan fluorescence measurements were performed on a Fluoromax Spectrofluorimeter (Horiba-Jobin Yvon Fluoromax 4). Recombinant His-RAD54 (500 nM) was excited at 280 nm and the emission intensity monitored at regular intervals from 295 nm to at least 450 nm.

[5] = biological target: T1, RAD54 chromatin remodeling activity; assay: Restriction enzyme accessibility (REA) assay on chromatinized G5E4 array; type: biochemical; conditions: 10 μM compound, +ATP
Excerpt: as §2, §2

Row | Compound | BLM dependent enhancement of RAD54 chromatin remodeling, fraction uncut [1] | BLM dependent enhancement of ATPase activity of RAD54 (ATP hydrolysis) (RAD54 ATPase activity) | Kd (His-RAD54 WT [2]) | MRP2 activity, accumulation of CDF [3] | number of soft agar colonies (anchorage independent growth) (HCT116 IC60 CPTR cells) | tryptophan fluorescence of RAD54 (His-RAD54 WT [4]) | BLM (1-212) dependent enhancement of RAD54 chromatin remodeling, fraction uncut [5]
1 | CN1CCN(C2=Nc3ccccc3Oc3ccc(Cl)cc32)CC1.O=C(O)CCC(=O)O [C17, Loxapine succinate] | decreased the efficiency of BLM dependent enhancement of RAD54 chromatin remodelling activity | reduced the extent of ATP hydrolysis | 0.0803 µM | decreased MRP2 activity | decreased anchorage independent cell growth | quenched the tryptophan florescence of RAD54 even at 10 nM concentration | decrease the efficiency of BLM dependent enhancement of RAD54 chromatin remodeling activity
2 | OCCN(CCO)c1nc(N2CCCCC2)c2nc(N(CCO)CCO)nc(N3CCCCC3)c2n1 [C7, Dipyridamole] | decreased the efficiency of BLM dependent enhancement of RAD54 chromatin remodelling activity | reduced the extent of ATP hydrolysis | 5.04 µM | decreased MRP2 activity | decreased anchorage independent cell growth | quenched the tryptophan florescence of RAD54 even at 10 nM concentration | decrease the efficiency of BLM dependent enhancement of RAD54 chromatin remodeling activity
3 | CC(=O)Nc1nnc(S(N)(=O)=O)s1 [C3, Acetazolamide] | decreased the efficiency of BLM dependent enhancement of RAD54 chromatin remodelling activity | reduced the extent of ATP hydrolysis | 55.8 µM | decreased MRP2 activity | decreased anchorage independent cell growth | quenched the tryptophan florescence of RAD54 even at 10 nM concentration | decrease the efficiency of BLM dependent enhancement of RAD54 chromatin remodeling activity
